{"source": "patent US20100222875A1", "about": "“METHOD FOR FORMING A POROUS STENT COATING” (Abbott Cardiovascular Systems Inc., priority 2006, published 2010)", "assay": "in vitro drug release from a PBMA-coated stent", "assay_type": "physicochemical", "conditions": "over 24 hours, everolimus in PBMA drug coat, drug:polymer ratio 1 to 1.25, with 40-μg PBMA topcoat (0.3 micron coating thickness) on 18-mm medium stent", "source_text": "Of import to the present invention is that a polymer's mesh size can be altered by the formation of pores within the polymer itself. One means of accomplishing this is to add such a large concentration of drug to the polymer that the drug phase separates out. Thus, during stent synthesis, drug is released, thereby forming pores within the polymer. However, a topcoat is often added to control drug release and prevent an initial bolus or burst release of drug. Unfortunately, sometimes even the thinnest topcoat that can be applied leads to a drug release that is too slow to be therapeutically effective. One example is everolimus in a PBMA drug coat with a PBMA topcoat. For example, it has been shown that a thin 40-μg PBMA topcoat on an 18-mm medium stent, i.e., a 0.3 micron coating thickness, with a drug:polymer ratio of 1 to 1.25, gave only 7.1% drug release over 24 hours in an in vitro experiment.", "data": [{"smiles": "CO[C@H]1C[C@@H]2CC[C@@H](C)[C@@](O)(O2)C(=O)C(=O)N2CCCC[C@H]2C(=O)O[C@H]([C@H](C)C[C@@H]2CC[C@@H](OCCO)[C@H](OC)C2)CC(=O)[C@H](C)/C=C(\\C)[C@@H](O)[C@@H](OC)C(=O)[C@H](C)C[C@H](C)/C=C/C=C/C=C/1C", "note": "[everolimus]", "values": [{"measurement": "drug release", "value": 7.1, "unit": "%"}]}]}
